Results on twelve compounds are retold here after PMC8760490, “Discovery of novel furanylbenzamide inhibitors that target oncogenic tyrosine phosphatase SHP2 in leukemia cells” (The Journal of Biological Chemistry, 2021).

The structures appear in SMILES notation.

For assay [1], the target named is T1, full-length SHP2-E76K oncogenic mutant (Homo sapiens, UniProt Q06124, E76K).
T1 construct: Recombinant human full-length SHP2 (1–594) WT and E76K mutants; made in house
T1 sequence (Q06124 1-593 E76K): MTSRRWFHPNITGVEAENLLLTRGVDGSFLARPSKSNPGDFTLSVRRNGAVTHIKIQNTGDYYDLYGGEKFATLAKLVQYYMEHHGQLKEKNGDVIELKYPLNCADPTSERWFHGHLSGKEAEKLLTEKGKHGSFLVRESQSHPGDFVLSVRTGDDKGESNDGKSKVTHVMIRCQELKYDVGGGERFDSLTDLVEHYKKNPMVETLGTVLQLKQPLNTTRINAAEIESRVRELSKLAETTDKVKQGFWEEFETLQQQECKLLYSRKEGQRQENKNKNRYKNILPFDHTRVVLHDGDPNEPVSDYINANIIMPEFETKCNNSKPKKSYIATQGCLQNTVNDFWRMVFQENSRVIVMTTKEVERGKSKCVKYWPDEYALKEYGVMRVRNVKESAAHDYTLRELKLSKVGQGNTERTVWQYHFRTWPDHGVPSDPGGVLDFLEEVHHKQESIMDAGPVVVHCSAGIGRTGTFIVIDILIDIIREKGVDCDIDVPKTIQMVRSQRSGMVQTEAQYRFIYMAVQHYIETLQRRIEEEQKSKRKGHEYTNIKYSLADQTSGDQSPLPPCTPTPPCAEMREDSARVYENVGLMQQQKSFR
Put plainly: DiFMUP fluorescence phosphatase inhibition assay, SHP2-E76K. In kind it is biochemical. Particulars: for IC50: DiFMUP at Km (20 μM), 10-point dose–response, pH 6.0. The text has this: (§1) To test the synthesized compounds for their potential to inhibit SHP2 activity, a fluorescence intensity-based assay using 6,8-difluoro-4-methylumbelliferyl phosphate (DiFMUP) as the substrate was adapted for three recombinant SHP2 constructs: (1) the SHP2 catalytic domain (SHP2cat; residues 248–527), (2) the full-length SHP2-E76K oncogenic mutant, and (3) the full-length SHP2 WT (SHP2-WT). The recombinant SHP2 proteins were expressed and purified as described previously ([36]). A dually phosphorylated peptide derived from the insulin receptor substrate 1 (IRS-1) served as a surrogate binding protein and was used to activate SHP2-WT ([30], [36]). […] Michaelis–Menten experiments to determine the DiFMUP Michaelis–Menten constant (Km) for each SHP2 construct were performed as described previously ([36]) and yielded the following values: SHP2-WT, Km = 60 μM; SHP2-E76K, Km = 20 μM; and SHP2cat, Km = 20 μM. Relative maximum rates (Vmax) of the DiFMUP reactions expressed as relative fluorescence units per minute (RFU/min) were as follows: SHP2-WT, Vmax = 871 RFU/min; SHP2-E76K, Vmax = 2730 RFU/min; and SHP2cat, Vmax = 2912 RFU/min. IC50 values for each compound were determined from initial rates in 10-point dose–response assays using DiFMUP at a concentration corresponding to its Km value for the respective SHP2 construct. […] Replacements for the benzothiophenone were explored using analog #10.
(§2) Recombinant human full-length SHP2 (1–594) WT and E76K mutants, as well as the SHP2cat (248–527), were expressed and purified as described before ([36], [41]). Recombinant human PTP1B (1–300) and the codon-optimized STEP (280–566) catalytic domains were cloned into PET-15b and expressed as N-His-tagged fusion proteins. For expression, transformed BL21(DE3) cells were grown and induced similar as described for SHP2. Collected cells were resuspended in lysis buffer (25 mM Tris, pH 7.5, 300 mM NaCl, 50 mM imidazole, and 10% glycerol) with 100 mg/l RNaseA and were lysed with two passages using a microfluidizer. The lysate was clarified by centrifugation at 15,000g for 50 min and applied to nickel–nitrilotriacetic acid resin. The column resin was washed, and the PTP1B or STEP protein was eluted in lysis buffer at 300 mM imidazole. The PTP1B or STEP protein was further purified by S75 size-exclusion chromatography in 50 mM Tris, pH 7.5, 50 mM NaCl. The eluted peak fractions were supplemented with tris(2-carboxyethyl)phosphine to 10 mM, concentrated by ultrafiltration, and stored at −80 °C. The purified yield of PTP1B was 33 mg/l cell culture; the yield of STEP was 16 mg/l cell culture.
(§3) SHP2 inhibitors were tested at RT in a 384-well plate format standard phosphatase fluorescence intensity assay using DiFMUP (Invitrogen/Thermo Fisher Scientific) as a substrate and a total reaction volume of 25 μl. SHP2 inhibitors or vehicle (DMSO) were spotted in triplicate into a black Greiner FLUOTRAC 200 384-well microplate (catalog no.: 781076; Greiner) for a 10-point dose–response assay using an Echo 555 Liquid Handler (Labcyte, Inc). PTP working solutions were prepared at a 0.625 nM concentration (for a final concentration of 0.5 nM) in buffer containing 50 mM Bis–Tris, pH 6.0, 50 mM NaCl, 5 mM DTT, and 0.01% Tween-20. Prior to the assay, a dually phosphorylated IRS-1 peptide (625 nM [500 nM final] ([30])) was added to full-length WT SHP2 working solutions and incubated for 20 min. DiFMUP working solutions at 5× final concentration were prepared in 50 mM Bis–Tris, pH 6.0, 50 mM NaCl, and 0.01% Tween-20. About 20 μl of PTP working solution was dispensed into the microplate and incubated with inhibitor for 20 min at RT. […] The reaction was initiated by addition of 5 μl DiFMUP working solutions. Fluorescence intensity was measured in kinetic mode (every minute for 7 or 10 min) using a Tecan Spark Multimode Microplate Reader (Tecan) with an excitation wavelength of 360 nm and an emission wavelength of 460 nm. […]

Assay [2] concerns the target T2, full-length SHP2 WT (SHP2-WT) (Homo sapiens, UniProt Q06124).
T2 construct: Recombinant human full-length SHP2 (1–594) WT and E76K mutants; made in house
Put plainly: DiFMUP fluorescence phosphatase inhibition assay, SHP2-WT activated with IRS-1 peptide. In kind it is biochemical. Particulars: DiFMUP at Km (60 μM), pH 6.0.
From the text: as §1, §2, §3

One may read the IC50 as the midpoint of a concentration-inhibition curve. A low value points to inhibition by little substance. Take `CC(C)NC(=O)c1cc(-c2ccc(/C=C3\Sc4ccccc4C3=O)o2)ccc1O` [SBI-0287, (Z)-2-Hydroxy-N-isopropyl-5-(5-((3-oxobenzo[b]thiophen-2(3H)-ylidene)methyl)furan-2-yl)benzamide]: the figures for the IC50 in assay [1] and in assay [2] were 20 µM and 53 µM, respectively.

Consider `O=C(NCCO)c1cc(-c2ccc(/C=C3\Sc4ccccc4C3=O)o2)ccc1O` [SBI-1457, (Z)-2-Hydroxy-N-(2-hydroxyethyl)-5-(5-((3-oxobenzo[b]thiophen-2(3H)-ylidene)methyl)furan-2-yl)benzamide], for which the IC50 in assay [1] and in assay [2] was greater than 100 µM in each case.

With `O=C1/C(=C/c2ccc(-c3ccc(O)c(C(=O)N4CCNCC4)c3)o2)Sc2ccccc21` [SBI-2124, (Z)-2-((5-(4-Hydroxy-3-(piperazine-1-carbonyl)phenyl)furan-2-yl)methylene)benzo[b]thiophen-3(2H)-one], the half-inhibitory concentration (IC50) in assay [1] is 91 µM; in assay [2], greater than 100 µM.

On to `CN1CCN(C(=O)c2cc(-c3ccc(/C=C4\Sc5ccccc5C4=O)o3)ccc2O)CC1` [SBI-2125, (Z)-2-((5-(4-Hydroxy-3-(4-methylpiperazine-1-carbonyl)phenyl)furan-2-yl)methylene)benzo[b]thiophen-3(2H)-one], for which the IC50 in assay [1] and in assay [2] was greater than 100 µM throughout.

For the compound `O=C(NCc1ccccc1)c1cccc(-c2ccc(/C=C3\Sc4ccccc4C3=O)o2)c1` [SBI-2129, (Z)-N-benzyl-3-(5-((3-oxobenzo[b]thiophen-2(3H)-ylidene)methyl)furan-2-yl)benzamide], the values for the IC50 in assay [1] and in assay [2] were 65 µM and greater than 100 µM, respectively.

As to `O=C(Nc1ccccc1)c1cc(-c2ccc(/C=C3\Sc4ccccc4C3=O)o2)ccc1F` [SBI-2348, (Z)-2-Fluoro-5-(5-((3-oxobenzo[b]thiophen-2(3H)-ylidene)methyl)furan-2-yl)-N-phenylbenzamide], the IC50 in assay [1] and in assay [2] was greater than 100 µM each time.

As to `COc1ccc(-c2ccc(/C=C3\Sc4ccccc4C3=O)o2)cc1C(=O)Nc1ccccc1` [SBI-2349, (Z)-2-Methoxy-5-(5-((3-oxobenzo[b]thiophen-2(3H)-ylidene)methyl)furan-2-yl)-N-phenylbenzamide], the IC50 in assay [1] was found to be 84 µM; in assay [2], 87 µM.

As for `O=C1CCCCC1=Cc1ccc(-c2ccc(O)c(C(=O)O)c2)o1` [SBI-3194, 2-Hydroxy-5-(5-((2-oxocyclohexylidene)methyl)furan-2-yl)benzoic acid], the results for the 50% inhibitory concentration (IC50) in assay [1] and in assay [2] were 39 µM and 56 µM, respectively.

As for `O=C1/C(=C/c2ccc(-c3ccccc3)o2)Sc2ccccc21` [SBI-3570, (Z)-2-((5-phenylfuran-2-yl)methylene)benzo[b]thiophen-3(2H)-one], the IC50 in assay [1] and in assay [2] was greater than 100 µM in each case.

`O=C1/C(=C/c2ccc(-c3ccc(O)cc3)o2)Sc2ccccc21` [SBI-4167, (Z)-2-((5-(4-Hydroxyphenyl)furan-2-yl)methylene)benzo[b]thiophen-3(2H)-one]: the IC50 in assay [1] is 79 µM; in assay [2], greater than 100 µM. Also, in assay [1] (E76K IC50), the “loss in potency compared with #01” value is roughly 165 fold.

As for `O=C(Nc1ccccc1)c1cc(-c2ccco2)ccc1O` [SBI-4232, 5-(Furan-2-yl)-2-hydroxy-N-phenylbenzamide], the IC50 in assay [1] and in assay [2] was greater than 100 µM each time.

Consider `O=C(Nc1ccccc1)c1cccc(-c2ccc(/C=C3\Sc4ccccc4C3=O)o2)c1` [SBI-5923, (Z)-3-(5-((3-Oxobenzo[b]thiophen-2(3H)-ylidene)methyl)furan-2-yl)-N-phenylbenzamide], for which the IC50 came to 52 µM in assay [1] and 62 µM in assay [2].
